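How tested: cells in 96-well plates exposed to compound for 48 hours at five concentrations. The concentration for 50% growth inhibition is given as GI50. TGI denotes the concentration required for complete inhibition of growth.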
Legend:
Assay in all cases: growth of human tumour cells (NCI), 48 h
SK-MEL-2 melanoma = test system: SK-MEL-2 melanoma
CCRF-CEM leukemia = test system: CCRF-CEM leukemia
K-562 leukemia = test system: K-562 leukemia
A549 NSCLC = test system: A549 NSCLC
EKVX NSCLC = test system: EKVX NSCLC
CAKI-1 renal = test system: CAKI-1 renal
OVCAR-4 ovarian = test system: OVCAR-4 ovarian
UACC-257 melanoma = test system: UACC-257 melanoma
TK-10 renal = test system: TK-10 renal
MDA-MB-435 = test system: MDA-MB-435

Row | SMILES | TGI (SK-MEL-2 melanoma) | TGI (CCRF-CEM leukemia) | TGI (K-562 leukemia) | TGI (A549 NSCLC) | TGI (EKVX NSCLC) | TGI (CAKI-1 renal) | TGI (OVCAR-4 ovarian) | TGI (UACC-257 melanoma) | TGI (TK-10 renal) | GI50 (SK-MEL-2 melanoma) | GI50 (K-562 leukemia) | GI50 (A549 NSCLC) | GI50 (EKVX NSCLC) | GI50 (MDA-MB-435) | TGI (MDA-MB-435) | GI50 (CAKI-1 renal) | GI50 (OVCAR-4 ovarian) | GI50 (UACC-257 melanoma) | GI50 (TK-10 renal) | GI50 (CCRF-CEM leukemia)
1 | COc1cc([C@@H]2c3cc4c(cc3[C@@H](NC(=O)c3ccccc3)C3COC(=O)[C@@H]32)OCO4)cc(OC)c1O (some centres undefined) | 57.3 µM | > 100 µM | 33.8 µM | 16.6 µM | 87.1 µM | > 100 µM | > 100 µM | 48.1 µM | 92.5 µM | – | – | – | – | – | – | – | – | – | – | –
2 | CC(=O)Nc1ccc2c(c1)oc(=O)c1cc(NC(C)=O)ccc12 | > 100 µM | – | > 100 µM | > 100 µM | > 100 µM | > 100 µM | > 100 µM | > 100 µM | > 100 µM | > 100 µM | > 100 µM | > 100 µM | > 100 µM | > 100 µM | > 100 µM | > 100 µM | > 100 µM | > 100 µM | 98.7 µM | –
3 | CC(=O)Oc1ccc(O)c(O)c1C/C=C(\C)CC/C=C(\C)CC/C=C(\C)CCC=C(C)C | 2.9 µM | – | – | 1.55 µM | 3.81 µM | 8.03 µM | 1.72 µM | 2.26 µM | 2.6 µM | – | – | – | – | – | – | – | – | – | – | –
4 | CC(=O)NC1=C(C)C(=O)c2c(nc3n2CCC3O)C1=N (centres undefined) | 22 µM | > 100 µM | > 100 µM | > 100 µM | 37 µM | 27.7 µM | 14.6 µM | 13.2 µM | 85.4 µM | – | – | – | – | – | – | – | – | – | – | –
5 | COc1cc(/C=C/C(=O)c2sc(Nc3ccccc3)nc2C)ccc1O | > 100 µM | > 100 µM | > 100 µM | > 100 µM | > 100 µM | > 100 µM | – | > 100 µM | > 100 µM | – | – | – | – | – | – | – | – | – | – | –
6 | N#C/C(=C\c1cccc(O)c1)C(N)=O | > 100 µM | > 100 µM | > 100 µM | > 100 µM | > 100 µM | > 100 µM | > 100 µM | > 100 µM | > 100 µM | – | – | – | – | – | – | – | – | – | – | –
7 | CCCCCCCCCCCCCCCC(=O)OCC1OC(n2c(O)c(N=NC(N)=S)c3ccc([N+](=O)[O-])cc32)C(OC(C)=O)C1OC(C)=O (centres undefined) | > 100 µM | > 100 µM | > 100 µM | > 100 µM | > 100 µM | > 100 µM | > 100 µM | > 100 µM | > 100 µM | – | – | – | – | – | – | – | – | – | – | –
8 | COc1ccc2c(c1)OC(N(C(C)=O)C(C)=O)=C(C#N)C2c1ccc(F)cc1 (centres undefined) | > 100 µM | > 100 µM | – | > 100 µM | > 100 µM | – | > 100 µM | > 100 µM | > 100 µM | 1.08 µM | – | 4.45 µM | 6.37 µM | – | – | – | 7.93 µM | 23 µM | 17.5 µM | 2.13 µM
9 | CC(=O)OCC1OC(n2ccc(=O)[nH]c2=O)C(OC(C)=O)C1OC(C)=O (centres undefined) | > 100 µM | – | – | > 100 µM | > 100 µM | > 100 µM | > 100 µM | > 100 µM | > 100 µM | > 100 µM | – | > 100 µM | > 100 µM | > 100 µM | > 100 µM | > 100 µM | > 100 µM | > 100 µM | > 100 µM | –
10 | COc1ccc(-c2cncn2-c2ccc(OC)cc2)cc1 | 42.9 µM | – | 36.9 µM | 49.3 µM | 27.1 µM | 44 µM | > 100 µM | 62.2 µM | 41.9 µM | 17.9 µM | 10.8 µM | 20.6 µM | 4.08 µM | 3.62 µM | 14.1 µM | 20.6 µM | 28.9 µM | 21.4 µM | 17.4 µM | –
11 | CC(=O)c1cc([N+](=O)[O-])ccc1OCC(=O)O | > 100 µM | > 100 µM | > 100 µM | > 100 µM | > 100 µM | > 100 µM | > 100 µM | > 100 µM | > 100 µM | – | – | – | – | – | – | – | – | – | – | –
12 | CCCCn1cnc2c(SC)ncnc21 | > 100 µM | – | > 100 µM | > 100 µM | > 100 µM | > 100 µM | > 100 µM | > 100 µM | > 100 µM | – | – | – | – | – | > 100 µM | – | – | – | – | –
13 | CC/C=C\C/C=C\C/C=C\CCCCCCCC(=O)OCC | > 100 µM | > 100 µM | > 100 µM | > 100 µM | > 100 µM | > 100 µM | > 100 µM | > 100 µM | > 100 µM | – | – | – | – | – | – | – | – | – | – | –
14 | O=C(CN1CCN(c2ccccc2)CC1)N1CCc2c([nH]c3ccccc23)C1c1cccnc1 (centres undefined) | > 100 µM | > 100 µM | > 100 µM | > 100 µM | > 100 µM | > 72.6 µM | > 66.8 µM | > 100 µM | > 45.7 µM | – | – | – | – | – | – | – | – | – | – | –
15 | CC1=C(O)C(=O)C2C(=O)C1C(C)C2c1ccc(Cl)cc1 (centres undefined) | > 100 µM | > 100 µM | > 100 µM | > 100 µM | > 100 µM | > 100 µM | > 100 µM | – | > 100 µM | – | – | – | – | – | – | – | – | – | – | –
16 | O=C(O)c1cc(=O)c2[nH]c3ccccc3c2s1 | > 100 µM | > 100 µM | > 100 µM | > 100 µM | > 100 µM | > 100 µM | > 100 µM | > 100 µM | > 100 µM | – | – | – | – | – | – | – | – | – | – | –
17 | O=C(CSC(=S)N1CCOCC1)Nc1nc2c(s1)CCCC2 | > 100 µM | > 100 µM | – | > 100 µM | > 100 µM | – | > 100 µM | > 100 µM | > 100 µM | – | – | – | – | – | – | – | – | – | – | –
18 | COc1cc(CNc2ccc(C(C)C)cc2)cc(OC)c1OC | 32.9 µM | 50.5 µM | 41.7 µM | 34.2 µM | > 100 µM | 45.1 µM | 65.8 µM | 61.7 µM | > 100 µM | – | – | – | – | – | – | 16.9 µM | – | – | – | –
19 | COc1ccc(O)c(C#N)c1C#N | > 100 µM | > 100 µM | > 100 µM | > 100 µM | > 100 µM | > 100 µM | > 100 µM | > 100 µM | > 100 µM | – | – | – | – | – | – | – | – | – | – | –
20 | CCC(CC)n1c(C)nc2c1C(=O)c1ccccc1C2=O | > 100 µM | > 100 µM | > 100 µM | > 100 µM | > 100 µM | – | > 100 µM | 72.7 µM | > 100 µM | – | – | – | – | – | – | – | – | – | – | –
